Experimental findings from patent publication US9422312B2, “Azabenzimidazole derivatives” (Boehringer Ingelheim International GmbH, priority 2014, dated 2016) are described below.

A word on the EC50: it is the concentration that produces a half-maximal response. High values mean lower potency in that assay, low ones higher potency in that assay.

Molecules are shown by their SMILES.

In this assay the target is Activated AMPK complex 1 (containing alpha1beta1gamma1) (Homo sapiens (Human), UniProt Q13131+Q9Y478). Nature of the assay: in vitro AMPK activation assay (ADP-Glo Kinase Assay). In kind it is biochemical. The settings on record: 1 μM peptide substrate, 30 μM ATP, 60 min, room temperature, luminescence. The source says: Activated AMPK complex 1 (containing alpha1beta1gamma1) was obtained from baculovirus expression system. The gene encoding AMPK alpha1 was cloned into the pACG2T vector (BD Biosciences) to obtain a N-terminal Glutathion S transferase (GST)-fusion protein. The genes encoding AMPK beta 1 and gamma1 were cloned into the p2Bac dual multiple cloning site vector (Invitrogen) with beta1 under the control of the p10 promoter and gamma1 under the control of the PH promoter. The transfer vectors containing AMPK were co-transfected individually with AcPNV BacMagic-3 DNA (EMD Millipore) in Sf9 cells and the recombinant baculoviruses were harvested after 5 days, followed by 3 rounds of amplification of the virus stock in Sf9 cells. AMPK (alpha1beta1gamma1) was expressed in High Five 5 cells by co-infection of recombinant alpha1 virus and recombinant beta1/gamma1 virus for 72 h at 27° C. Cells were harvested by centrifugation and lysed by 3 freeze/thaw cycles in PBS with 10% glycerol and protease inhibitor cocktail (Roche). After centrifugation AMPK a1b1g1 in the supernatant was captured by immobilized glutathione (GE Healthcare), impurities were washed away with PBS and AMPK alpha1beta1gamma1 was eluted with PBS containing 20 mM reduced gluthathione. The protein buffer was then exchanged to PBS with 10% glycerol and protein concentration was determined by UV absorbance.
Sequence of Activated AMPK complex 1 (containing alpha1beta1gamma1) (Q13131 whole entry, the tested form may be a part): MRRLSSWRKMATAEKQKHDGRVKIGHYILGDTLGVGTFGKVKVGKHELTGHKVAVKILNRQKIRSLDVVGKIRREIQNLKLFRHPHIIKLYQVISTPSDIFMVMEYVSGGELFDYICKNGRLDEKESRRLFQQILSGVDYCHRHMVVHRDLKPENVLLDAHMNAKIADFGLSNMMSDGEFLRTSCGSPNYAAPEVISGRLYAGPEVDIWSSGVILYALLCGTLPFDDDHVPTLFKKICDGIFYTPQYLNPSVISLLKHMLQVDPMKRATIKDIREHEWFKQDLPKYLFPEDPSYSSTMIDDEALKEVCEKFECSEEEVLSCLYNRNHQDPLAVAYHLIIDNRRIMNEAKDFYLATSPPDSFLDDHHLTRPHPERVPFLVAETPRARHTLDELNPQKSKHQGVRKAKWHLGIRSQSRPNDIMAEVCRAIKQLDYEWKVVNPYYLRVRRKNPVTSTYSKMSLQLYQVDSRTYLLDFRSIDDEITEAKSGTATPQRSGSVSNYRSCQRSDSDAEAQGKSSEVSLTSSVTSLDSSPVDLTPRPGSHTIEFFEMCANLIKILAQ
Sequence of Activated AMPK complex 1 (containing alpha1beta1gamma1) (Q9Y478 whole entry, the tested form may be a part): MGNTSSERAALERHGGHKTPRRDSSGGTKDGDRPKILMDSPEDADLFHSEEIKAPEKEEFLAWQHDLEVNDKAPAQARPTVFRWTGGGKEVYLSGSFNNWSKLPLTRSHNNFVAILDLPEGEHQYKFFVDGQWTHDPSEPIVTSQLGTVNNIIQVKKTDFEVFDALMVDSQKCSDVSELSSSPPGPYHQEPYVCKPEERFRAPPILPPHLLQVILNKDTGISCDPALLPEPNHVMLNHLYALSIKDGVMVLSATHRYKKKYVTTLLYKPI
Sequence of Activated AMPK complex 1 (containing alpha1beta1gamma1) (P54619 whole entry partner, the tested form may be a part): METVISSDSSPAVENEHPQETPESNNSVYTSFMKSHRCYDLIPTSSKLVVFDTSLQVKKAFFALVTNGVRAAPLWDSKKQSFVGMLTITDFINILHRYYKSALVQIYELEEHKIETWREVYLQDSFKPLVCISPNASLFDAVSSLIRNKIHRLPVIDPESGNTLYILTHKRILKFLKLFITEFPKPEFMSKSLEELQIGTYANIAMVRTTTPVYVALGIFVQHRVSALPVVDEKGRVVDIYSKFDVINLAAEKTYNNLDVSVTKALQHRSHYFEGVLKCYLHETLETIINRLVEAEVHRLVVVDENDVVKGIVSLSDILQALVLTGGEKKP
The white 384-well Optiplates (cat. no. 6007299) were purchased from PerkinElmer. The V9101 ADP-Glo Kinase Assay and ultra pure ATP (V915A) was purchased from Promega. The substrate for AMPK (NH2-HMRSAMSGLHLVKRR_CONH2) was purchased from Upstate (12-355).
Compounds were tested in either serial dilutions or single dose concentrations. The serial compound dilutions were prepared in 100% DMSO automatically. The final DMSO concentration in the assay was 0.1%.
The Compound Stock Solutions were 10 mM in 100% DMSO. The compounds were solubilised at room temperature.
In the 384-well plates 1.25 ul of test compound in assay buffer was mixed with 1.25 ul of AMPK and 1.25 μl of the peptide (final concentration of 1 μM) and 1.25 μl of ATP (final concentration of 30 μM), both dissolved in assay buffer. This step was followed by an incubation time of 60 min. Then 5 μl of ADP Glo Reagent was added. This was followed by 40 min of incubation. Then 10 μl of Kinase Detection Reagent was admixed. The plates were sealed and after an incubation period of 30 min, the luminescence signal was measured in an Envision reader. All incubation steps were accomplished at room temperature.
Each assay microtiter plate contained wells with vehicle controls instead of compound (0.1% DMSO in water) as reference for the low signal (100% CTL, low signal), and wells with serial dilutions of AMP (final 30 μM) as reference for high signals.
The luminescence signal generated was proportional to the ADP concentration produced and was correlated with AMPK activity. The analysis of the data was performed by the calculation of the percentage of ATP consumption of AMPK in the presence of the test compound compared to the consumption of ATP in the presence of AMPK without compound. (RLU(sample)/RLU(low control))*100[RLU=relative luminescence units]
An activator of the AMPK enzyme gave values above 100% CTL.
EC50 values based on dose response curves are calculated with the XIFIT software using the 4 Parameter Logistic Model or Sigmoidal Dose-Response Model.
On to `CN=S(=O)(c1ccc(-c2ccc(-c3nc4[nH]c(O[C@@H]5CO[C@H]6[C@@H]5OC[C@H]6O)nc4cc3Cl)cc2)cc1)N(C)C` (stereo partly drawn) [Example 15, 4-[4-(2-{[(3R,3aR,6R,6aR)-6-Hydroxy-hexahydrofuro[3,2-b]furan-3-yl]oxy}-6-chloro-3H-imidazo[4,5-b]pyridin-5-yl)phenyl]-N,N,N′-trimethyl-benzenesulfonimidamide], for which the midpoint of the response, the EC50, lay at 90 nM.

`CN(C)S(C)(=O)=Nc1cnc(-c2ccc(-c3nc4[nH]c(O[C@@H]5CO[C@H]6[C@@H]5OC[C@H]6O)nc4cc3Cl)cc2)nc1` (stereo partly drawn) [Example 13, N′-{2-[4-(2-{[(3R,3aR,6R,6aR)-6-hydroxy-hexahydrofuro[3,2-b]furan-3-yl]oxy}-6-chloro-3H-imidazo[4,5-b]pyridin-5-yl)phenyl]pyrimidin-5-yl}-N,N-dimethyl-methanesulfonimidamide] returned an EC50 of 30 nM.

As for `CS(=O)(=NCc1ccc(-c2ccc(-c3nc4[nH]c(O[C@@H]5CO[C@H]6[C@@H]5OC[C@H]6O)nc4cc3Cl)cc2)cc1)N1CCCC1` (stereo partly drawn) [Example 19], the response was half-maximal at 138 nM (EC50).
